Experimental data as given in PubChem BioAssay AID248 (DTP/NCI, 2004).
Where “and” joins values, the source holds several entries; their conditions need not be identical. Equal values may be shown once. Inconclusive results and toxic doses are left out.

System: L1210 leukemia ip in BDF1 mice, survival T/C
Test: NCI In Vivo Anticancer Drug Screen. Data for tumor model L1210 Leukemia (intraperitoneal) in B6D2F1 (BDF1) mice
Conditions: higher = longer survival
How it was run: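 Transplantable tumor model; survival measured in treated vs vehicle control mice. Value = treated/control.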

[1] = endpoint: mean survival time, dose: 12.5 mg/kg/injection, schedule: Q01DX009 (ip), vehicle: Klucel (hydroxypropylcellulose) (HPC)
[2] = endpoint: mean survival time, dose: 25.0 mg/kg/injection, schedule: Q01DX009 (ip), vehicle: Klucel (hydroxypropylcellulose) (HPC)

S=C=NCc1ccc(Br)cc1
T/C (endpoint: mean survival time, dose: 1.25 mg/kg/injection, schedule: Q01DX009 (ip), vehicle: other): 95 % of control
T/C (endpoint: mean survival time, dose: 2.5 mg/kg/injection, schedule: Q01DX009 (ip), vehicle: other): 100 % of control
T/C (endpoint: mean survival time, dose: 2.5 mg/kg/injection, schedule: Q04DX003 (ip), vehicle: other): 103 % of control
T/C (endpoint: mean survival time, dose: 5.0 mg/kg/injection, schedule: Q01DX009 (ip), vehicle: other): 97 % of control
T/C (endpoint: mean survival time, dose: 5.0 mg/kg/injection, schedule: Q04DX003 (ip), vehicle: other): 103 % of control
T/C (endpoint: mean survival time, dose: 10.0 mg/kg/injection, schedule: Q01DX001 (ip), vehicle: other): 93 % of control
T/C (endpoint: mean survival time, dose: 10.0 mg/kg/injection, schedule: Q04DX003 (ip), vehicle: other): 88 % of control

ClC(Cl)(c1ccccc1)C1(c2ccccc2)CC1
T/C (endpoint: mean survival time, dose: 75.0 mg/kg/injection, schedule: Q01DX001 (ip), vehicle: acetone): 107 % of control
T/C (endpoint: mean survival time, dose: 150.0 mg/kg/injection, schedule: Q01DX001 (ip), vehicle: acetone): 109 % of control

NC(=O)N1CCN(CCCN2c3ccccc3Sc3cc(Cl)ccc32)CC1
T/C (endpoint: mean survival time, dose: 6.25 mg/kg/injection, schedule: Q01DX009 (ip), vehicle: Klucel (hydroxypropylcellulose) (HPC)): 95 % of control
T/C [1]: 110 % of control
T/C [2]: 115 % of control
T/C (endpoint: mean survival time, dose: 25.0 mg/kg/injection, schedule: Q04DX003 (ip), vehicle: Klucel (hydroxypropylcellulose) (HPC)): 113 % of control
T/C (endpoint: mean survival time, dose: 50.0 mg/kg/injection, schedule: Q04DX003 (ip), vehicle: Klucel (hydroxypropylcellulose) (HPC)): 109 % of control
T/C (endpoint: mean survival time, dose: 100.0 mg/kg/injection, schedule: Q04DX003 (ip), vehicle: Klucel (hydroxypropylcellulose) (HPC)): 115 % of control

OCC1OC(n2cc(Br)c3c(Cl)ncnc32)C(O)C1O (stereo not drawn)
T/C (endpoint: mean survival time, dose: 50.0 mg/kg/injection, schedule: Q01DX001 (ip), vehicle: carboxymethylcellulose (CMC)): 117 % of control
T/C (endpoint: mean survival time, dose: 100.0 mg/kg/injection, schedule: Q01DX001 (ip), vehicle: carboxymethylcellulose (CMC)): 87 % of control
T/C (endpoint: mean survival time, dose: 200.0 mg/kg/injection, schedule: Q01DX001 (ip), vehicle: carboxymethylcellulose (CMC)): 93 % of control
T/C (endpoint: mean survival time, dose: 400.0 mg/kg/injection, schedule: Q01DX001 (ip), vehicle: carboxymethylcellulose (CMC)): 112 % of control

CCCc1nnn(S(=O)(=O)c2ccc([N+](=O)[O-])cc2)c1CCC
T/C (endpoint: mean survival time, dose: 177.0 mg/kg/injection, schedule: Q01DX001 (ip), vehicle: other): 88 % of control
T/C (endpoint: mean survival time, dose: 266.0 mg/kg/injection, schedule: Q01DX001 (ip), vehicle: other): 91 % of control
T/C (endpoint: mean survival time, dose: 400.0 mg/kg/injection, schedule: Q01DX001 (ip), vehicle: other): 96 % of control
T/C (endpoint: mean survival time, dose: 600.0 mg/kg/injection, schedule: Q01DX001 (ip), vehicle: other): 88 % of control

COc1ccc(Cl)cc1-c1c(C(=O)O)cccc1[N+](=O)[O-]
T/C (endpoint: mean survival time, dose: 100.0 mg/kg/injection, schedule: Q01DX001 (ip), vehicle: gum acacia): 108 % of control
T/C (endpoint: mean survival time, dose: 100.0 mg/kg/injection, schedule: Q04DX003 (ip), vehicle: gum acacia): 102 % of control
T/C (endpoint: mean survival time, dose: 200.0 mg/kg/injection, schedule: Q01DX001 (ip), vehicle: gum acacia): 102 % of control
T/C (endpoint: mean survival time, dose: 200.0 mg/kg/injection, schedule: Q04DX003 (ip), vehicle: gum acacia): 102 % of control
T/C (endpoint: mean survival time, dose: 400.0 mg/kg/injection, schedule: Q01DX001 (ip), vehicle: gum acacia): 102 % of control
T/C (endpoint: mean survival time, dose: 400.0 mg/kg/injection, schedule: Q04DX003 (ip), vehicle: gum acacia): 90 % of control

S=P(N1CCOCC1)(N1CC1)N1CC1
T/C (endpoint: mean survival time, dose: 2.4 mg/kg/injection, schedule: Q01DX001 (ip), vehicle: saline): 106 % of control
T/C (endpoint: mean survival time, dose: 2.4 mg/kg/injection, schedule: Q07DX003 (ip), vehicle: saline): 104 % of control
T/C (endpoint: mean survival time, dose: 2.5 mg/kg/injection, schedule: Q01DX Z (ip), vehicle: carboxymethylcellulose (CMC)): 109 % of control
T/C (endpoint: mean survival time, dose: 2.5 mg/kg/injection, schedule: Q#A X Z (ip), vehicle: saline): 102 % of control
T/C (endpoint: mean survival time, dose: 4.3 mg/kg/injection, schedule: Q01DX001 (ip), vehicle: saline): 117 % of control
T/C (endpoint: mean survival time, dose: 4.3 mg/kg/injection, schedule: Q07DX003 (ip), vehicle: saline): 113 % of control
T/C (endpoint: mean survival time, dose: 5.0 mg/kg/injection, schedule: Q01DX006 (iv), vehicle: saline): 107 % of control
T/C (endpoint: mean survival time, dose: 5.0 mg/kg/injection, schedule: Q01DX009 (ip), vehicle: saline): 101 % of control and 104 % of control
T/C (endpoint: mean survival time, dose: 5.0 mg/kg/injection, schedule: Q01DX010 (ip), vehicle: saline): 97 % of control and 103 % of control
T/C (endpoint: mean survival time, dose: 5.0 mg/kg/injection, schedule: Q01DX Z (im), vehicle: saline): 104 % of control
T/C (endpoint: mean survival time, dose: 5.0 mg/kg/injection, schedule: Q01DX Z (ip), vehicle: carboxymethylcellulose (CMC)): 102 % of control
T/C (endpoint: mean survival time, dose: 5.0 mg/kg/injection, schedule: Q01DX Z (ip), vehicle: saline): 110 % of control
T/C (endpoint: mean survival time, dose: 5.0 mg/kg/injection, schedule: Q01DX Z (sc), vehicle: saline): 107 % of control
T/C (endpoint: mean survival time, dose: 5.0 mg/kg/injection, schedule: Q#A X Z (ip), vehicle: saline): 106 % of control
T/C (endpoint: mean survival time, dose: 8.7 mg/kg/injection, schedule: Q01DX001 (ip), vehicle: saline): 103 % of control
T/C (endpoint: mean survival time, dose: 8.7 mg/kg/injection, schedule: Q07DX003 (ip), vehicle: saline): 115 % of control
T/C (endpoint: mean survival time, dose: 10.0 mg/kg/injection, schedule: Q01DX006 (iv), vehicle: saline): 109 % of control
T/C (endpoint: mean survival time, dose: 10.0 mg/kg/injection, schedule: Q01DX009 (ip), vehicle: saline): 101 % of control and 104 % of control
T/C (endpoint: mean survival time, dose: 10.0 mg/kg/injection, schedule: Q01DX010 (ip), vehicle: saline): 114 % of control and 124 % of control
T/C (endpoint: mean survival time, dose: 10.0 mg/kg/injection, schedule: Q01DX Z (im), vehicle: saline): 114 % of control
T/C (endpoint: mean survival time, dose: 10.0 mg/kg/injection, schedule: Q01DX Z (ip), vehicle: carboxymethylcellulose (CMC)): 115 % of control
T/C (endpoint: mean survival time, dose: 10.0 mg/kg/injection, schedule: Q01DX Z (ip), vehicle: saline): 116 % of control
T/C (endpoint: mean survival time, dose: 10.0 mg/kg/injection, schedule: Q01DX Z (sc), vehicle: saline): 107 % of control
T/C (endpoint: mean survival time, dose: 15.0 mg/kg/injection, schedule: Q03DX006 (ip), vehicle: saline): 118 % of control
T/C (endpoint: mean survival time, dose: 17.5 mg/kg/injection, schedule: Q01DX001 (ip), vehicle: saline): 106 % of control
T/C (endpoint: mean survival time, dose: 18.0 mg/kg/injection, schedule: Q01DX003 (ip), vehicle: saline): 118 % of control
T/C (endpoint: mean survival time, dose: 20.0 mg/kg/injection, schedule: Q01DX009 (ip), vehicle: saline): 108 % of control and 120 % of control
T/C (endpoint: mean survival time, dose: 20.0 mg/kg/injection, schedule: Q01DX010 (ip), vehicle: saline): 118 % of control and 119 % of control
T/C (endpoint: mean survival time, dose: 20.0 mg/kg/injection, schedule: Q01DX Z (im), vehicle: saline): 168 % of control
T/C (endpoint: mean survival time, dose: 20.0 mg/kg/injection, schedule: Q01DX Z (ip), vehicle: carboxymethylcellulose (CMC)): 123 % of control
T/C (endpoint: mean survival time, dose: 20.0 mg/kg/injection, schedule: Q01DX Z (ip), vehicle: saline): 160 % of control
T/C (endpoint: mean survival time, dose: 20.0 mg/kg/injection, schedule: Q01DX Z (oral), vehicle: saline): 122 % of control
T/C (endpoint: mean survival time, dose: 26.0 mg/kg/injection, schedule: Q01DX003 (ip), vehicle: saline): 166 % of control
T/C (endpoint: mean survival time, dose: 30.0 mg/kg/injection, schedule: Q03DX006 (ip), vehicle: saline): 160 % of control
T/C (endpoint: mean survival time, dose: 35.0 mg/kg/injection, schedule: Q01DX001 (ip), vehicle: saline): 120 % of control
T/C (endpoint: mean survival time, dose: 40.0 mg/kg/injection, schedule: Q01DX003 (ip), vehicle: saline): 150 % of control and 173 % of control
T/C (endpoint: mean survival time, dose: 40.0 mg/kg/injection, schedule: Q01DX009 (ip), vehicle: saline): 101 % of control and 104 % of control
T/C (endpoint: mean survival time, dose: 40.0 mg/kg/injection, schedule: Q01DX010 (ip), vehicle: saline): 104 % of control
T/C (endpoint: mean survival time, dose: 40.0 mg/kg/injection, schedule: Q01DX Z (im), vehicle: saline): 110 % of control
T/C (endpoint: mean survival time, dose: 40.0 mg/kg/injection, schedule: Q01DX Z (ip), vehicle: saline): 89 % of control
T/C (endpoint: mean survival time, dose: 40.0 mg/kg/injection, schedule: Q#A X Z (ip), vehicle: saline): 92 % of control
T/C (endpoint: mean survival time, dose: 60.0 mg/kg/injection, schedule: Q01DX003 (ip), vehicle: saline): 156 % of control and 178 % of control
T/C (endpoint: mean survival time, dose: 70.0 mg/kg/injection, schedule: Q07DX003 (ip), vehicle: saline): 178 % of control
T/C (endpoint: mean survival time, dose: 80.0 mg/kg/injection, schedule: Q01DX006 (iv), vehicle: saline): 164 % of control
T/C (endpoint: mean survival time, dose: 80.0 mg/kg/injection, schedule: Q01DX Z (oral), vehicle: saline): 100 % of control
T/C (endpoint: mean survival time, dose: 140.0 mg/kg/injection, schedule: Q01DX001 (ip), vehicle: saline): 107 % of control
T/C (endpoint: mean survival time, dose: 280.0 mg/kg/injection, schedule: Q01DX001 (ip), vehicle: saline): 102 % of control
T/C (endpoint: median survival time, dose: 5.0 mg/kg/injection, schedule: Q01DX009 (ip), vehicle: saline): 100 % of control and 111 % of control
T/C (endpoint: median survival time, dose: 10.0 mg/kg/injection, schedule: Q01DX009 (ip), vehicle: saline): 106 % of control and 122 % of control
T/C (endpoint: median survival time, dose: 20.0 mg/kg/injection, schedule: Q01DX009 (ip), vehicle: saline): 166 % of control and 168 % of control
T/C (endpoint: median survival time, dose: 40.0 mg/kg/injection, schedule: Q01DX009 (ip), vehicle: saline): 122 % of control

CCCCCCCCCOc1ccc(C=Nc2ccc(CC)cc2)cc1
T/C [1]: 92 % of control
T/C [2]: 90 % of control
T/C (endpoint: mean survival time, dose: 50.0 mg/kg/injection, schedule: Q01DX009 (ip), vehicle: Klucel (hydroxypropylcellulose) (HPC)): 92 % of control
